Laboratory results published in US9376391B2, “Difluoromethyl-nicotinic-tetrahydronaphthyl carboxamides as fungicides” (BAYER CROPSCIENCE AKTIENGESELLSCHAFT, priority 2012, dated 2016).

Key:
Puccinia recondita = assay: In vivo preventive test on Puccinia recondita (brown rust on wheat); settings: for Eff. %: wheat, spray, graded 12 days after contamination vs control plants
Procedure: In Vivo Preventive Test on Puccinia recondita (Brown Rust on Wheat) […] Wheat plants (“Scipion” variety), sown in starter cups on a 50/50 peat soil-pozzolana substrate and grown at 22° C., are treated at the 1-leaf stage (10 cm height) by spraying with the active ingredient prepared as described above. Plants, used as controls, are treated with the mixture of acetone/tween/DMSO/water not containing the active material. After 24 hours, the plants are contaminated by spraying the leaves with an aqueous suspension of Puccinia recondita spores (100 000 spores per ml). The spores are collected from an infected plant and are suspended in water containing 2.5 ml/1 of Tween 80 at 10%. The contaminated wheat plants are incubated for 24 hours at 20° C. and at 100% relative humidity, and then for 10 days at 20° C. and at 70-80% relative humidity. Grading (% of efficacy) is carried out 12 days after the contamination, in comparison with the control plants.

[1] = log P by HPLC on reversed phase columns (EEC directive 79/831 Annex V.A8); assay type: physicochemical; settings: Table 1, formula (I); HPLC/LC-MS at pH 2.7, 0.1% formic acid in water / acetonitrile, gradient 10% to 95%
Pyrenophora teres = assay: In vivo preventive test on Pyrenophora teres (net blotch on barley); settings: for Eff. %: barley, spray, graded 14 days after contamination vs control plants
Procedure: In Vivo Preventive Test on Pyrenophora teres (Net Blotch on Barley)
(§1) The active ingredients tested are prepared by homogenization in a mixture of acetone/tween/DMSO, and then diluted with water to obtain the desired active material concentration.
Barley plants (“Plaisant” variety), sown in starter cups on a 50/50 peat soil-pozzolana substrate and grown at 22° C., are treated at the 1-leaf stage (10 cm height) by spraying with the active ingredient prepared as described above. Plants, used as controls, are treated with the mixture of acetone/tween/DMSO/water not containing the active material.
After 24 hours, the plants are contaminated by spraying the leaves with an aqueous suspension of Pyrenophora teres spores (12 000 spores per ml). The spores are collected from a 12-day-old culture. The contaminated barley plants are incubated for 48 hours at 20° C. and at 100% relative humidity, and then for 12 days at 20° C. at 70-80% relative humidity.
Grading (% of efficacy) is carried out 14 days after the contamination, in comparison with the control plants. plants.

Septoria tritici = assay: In vivo preventive test on Septoria tritici (leaf spot on wheat); settings: preventive spray, wheat plants, grading 24 days after contamination
Procedure: In Vivo Preventive Test on Septoria tritici (Leaf Spot on Wheat)
as §1
Wheat plants (“Scipion” variety), sown in starter cups on a 50/50 peat soil-pozzolana substrate and grown at 22° C., are treated at the 1-leaf stage (10 cm height) by spraying with the active ingredient prepared as described above. Plants, used as controls, are treated with the mixture of acetone/tween/DMSO/water not containing the active material.
After 24 hours, the plants are contaminated by spraying the leaves with an aqueous suspension of cryopreserved Septoria tritici spores (500 000 spores per ml). The contaminated wheat plants are incubated for 72 hours at 18° C. and at 100% relative humidity, and then for 21 days at 90% relative humidity.
Grading (% of efficacy) is carried out 24 days after the contamination, in comparison with the control plants.

Sphaerotheca fuliginea = assay: In vivo preventive test on Sphaerotheca fuliginea (powdery mildew on cucurbits); settings: for Eff. %: preventive spray
Procedure: In Vivo Preventive Test on Sphaerotheca fuliginea (Powdery Mildew on Cucurbits)
(§2) The active ingredients tested are prepared by homogenization in a mixture of acetone/tween/DMSO and then diluted with water to obtain the desired active material concentration.
(§3) Gherkin plants (“Vert petit de Paris” variety), sown in starter cups on a 50/50 peat soil-pozzolana substrate and grown at 24° C., are treated at the Z11 cotyledon stage by spraying with the active ingredient prepared as described above. Plants, used as controls, are treated with the mixture of acetone/tween/DMSO/water not containing the active material.
After 24 hours, the plants are contaminated by spraying the cotyledons with an aqueous suspension of Sphaerotheca fuliginea spores (100 000 spores per ml). The spores are collected from infected plants. The contaminated gherkin plants are incubated at about 20° C. and at 70-80% relative humidity.
Grading (% of efficacy) is carried out 12 days after the contamination, in comparison with the control plants.

Uromyces appendiculatus = assay: In vivo preventive test on Uromyces appendiculatus (bean rust); settings: preventive spray, bean plants, grading 11 days after contamination
Procedure: In Vivo Preventive Test on Uromyces appendiculatus (Bean Rust) […] Bean plants (“Saxa” variety), sown in starter cups on a 50/50 peat soil-pozzolana substrate and grown at 24° C., are treated at the 2-leaf stage (9 cm height) by spraying with the active ingredient prepared as described above. Plants, used as controls, are treated with the mixture of acetone/tween/DMSO/water not containing the active material. After 24 hours, the plants are contaminated by spraying the leaves with an aqueous suspension of Uromyces appendiculatus spores (150 000 spores per ml). The spores are collected from infected plants and are suspended in water containing 2.5 ml/1 of Tween 80 at 10%. The contaminated bean plants are incubated for 24 hours at 20° C. and at 100% relative humidity, and then for 10 days at 20° C. and at 70-80% relative humidity. Grading (% of efficacy) is carried out 11 days after the contamination, in comparison with the control plants.

Botrytis cinerea = assay: In vivo preventive test on Botrytis cinerea (grey mould), gherkin plants; settings: for Eff. %: gherkin, spray, graded 4 to 5 days after contamination vs control plants
Procedure: In Vivo Preventive Test on Botrytis cinerea (Grey Mould)
as §2, §3
After 24 hours, the plants are contaminated by spraying the cotyledons with an aqueous suspension of cryopreserved Botrytis cinerea spores (50 000 spores per ml). The spores are suspended in a nutrient solution composed of 10 g/L of PDB, 50 g/L of D-Fructose, 2 g/L of NH4NO3 and 1 g/L of KH2PO4. The contaminated gherkin plants are incubated at 17° C. and at 90% relative humidity.
Grading (% of efficacy) is carried out 4 to 5 days after the contamination, in comparison with the control plants.

Phakopsora pachyrhizi = assay: Phakopsora test (soybeans)/preventive; assay type: in vivo; settings: 10 ppm of active ingredient, evaluated 7 days after inoculation
Procedure: Phakopsora Test (Soybeans)/Preventive
To produce a suitable preparation of active compound, 1 part by weight of active compound is mixed with the stated amounts of solvent and emulsifier, and the concentrate is diluted with water to the desired concentration.
To test for preventive activity, young plants are sprayed with the preparation of active compound at the stated rate of application. After the spray coating has dried on, the plants are inoculated with an aqueous spore suspension of the causal agent of soybean rust (Phakopsora pachyrhizi) and stay for 24 h without light in an incubation cabinet at approximately 24° C. and a relative atmospheric humidity of 95%.
The plants remain in the incubation cabinet at approximately 24° C. and a relative atmospheric humidity of approximately 80% and a day/night interval of 12 h.
The test is evaluated 7 days after the inoculation. 0% means an efficacy which corresponds to that of the untreated control, while an efficacy of 100% means that no disease is observed.

Alternaria brassicae = assay: In vivo preventive test on Alternaria brassicae (leaf spot on radish); settings: spray, graded 6 days after contamination vs control plants
Procedure: In Vivo Preventive Test on Alternaria brassicae (Leaf Spot on Radish)
as §1
Radish plants (“Pernod Clair” variety), sown in starter cups on a 50/50 peat soil-pozzolana substrate and grown at 17° C., are treated at the cotyledon stage by spraying with the active ingredient prepared as described above. Plants, used as controls, are treated with the mixture of acetone/tween/DMSO/water not containing the active material.
After 24 hours, the plants are contaminated by spraying the cotyledons with an aqueous suspension of Alternaria brassicae spores (50 000 spores per ml). The spores are collected from a 15-day-old culture. The contaminated radish plants are incubated at 20° C. and at 100% relative humidity.
Grading (% of efficacy) is carried out 6 days after the contamination, in comparison with the control plants.

[2] = 500 ppm, gherkin plants, grading 12 days after contamination
[3] = 100 ppm, gherkin plants, grading 12 days after contamination
[4] = dose 100 ppm of active ingredient, comparison with known compounds
[5] = dose 100 ppm, comparison with known compounds, same conditions

Row | logP^[a] [1] | SMILES | Eff. % (Puccinia recondita; dose 500 ppm) [%] | Eff. % (Pyrenophora teres; dose 500 ppm) [%] | Eff. % (Septoria tritici; 500 ppm) [%] | Eff. % (Sphaerotheca fuliginea; [2]) [%] | Eff. % (Uromyces appendiculatus; 500 ppm) [%] | Eff. % (Puccinia recondita; dose 100 ppm) [%] | Eff. % (Phakopsora pachyrhizi) [%] | Eff. % (Sphaerotheca fuliginea; [3]) [%] | Eff. % (Uromyces appendiculatus; 100 ppm) [%] | Eff. % (Botrytis cinerea; dose 100 ppm) [%] | Eff. % (Alternaria brassicae; dose 500 ppm) [%] | further results
1 | 3.78^[a] | CC(C)C1c2cccc(NC(=O)c3cccnc3C(F)F)c2CC1C (stereo not shown) [Example 27] | 100 | 83 | 86 | 100 | 100 |  |  |  |  |  |  | Eff. % (Botrytis cinerea; dose 500 ppm): 100%
2 | 3.64^[a] | CCC1(C)CC(C)c2c(NC(=O)c3cccnc3C(F)F)cccc21 (mixture of isomers) [Example 81] |  |  |  |  |  | 100 | 100 | 94 | 99 | 100 |  | Eff. % (Alternaria brassicae; dose 100 ppm): 70%
3 | 4.39^[a] | CC1CC(CC(C)(C)C)c2cccc(NC(=O)c3cccnc3C(F)F)c21 (stereo not shown) [Example 46] | 98 |  | 71 | 100 | 100 |  | 90 |  |  |  | 98 | Eff. % (Botrytis cinerea; dose 500 ppm): 83%
4 | 4.46^[a] | CC(C)C1Cc2c(NC(=S)c3cccnc3C(F)F)cccc2C1(C)C (stereo not shown) [Example 65] |  |  |  |  |  | 98 |  | 98 | 100 | 100 |  | Eff. % (Pyrenophora teres; dose 100 ppm): 70%; Eff. % (Septoria tritici; 100 ppm): 80%
5 | 3.33^[a] | CC1Cc2c(NC(=O)c3cccnc3C(F)F)cccc2C1(C)C (stereo not shown) [Example 14] | 100 | 92 | 97 | 98 | 100 |  | 100 |  |  |  |  | 
6 | 2.63^[a] | CC1CCc2cccc(NC(=O)c3cccnc3C(F)F)c21 (racemic) [Example 4] | 97 | 75 | 100 |  | 100 |  |  |  |  |  | 71 | 
7 | 3.62^[a] | CC(C)CC1CCc2cccc(NC(=O)c3cccnc3C(F)F)c21 (stereo not shown) [Example 84] |  |  |  |  |  | 97 |  | 100 | 100 | 99 |  | Eff. % (Pyrenophora teres; dose 100 ppm): 75%; Eff. % (Septoria tritici; 100 ppm): 100%
8 | 3.78^[a] | CCC1Cc2c(NC(=O)c3cccnc3C(F)F)cccc2C1(C)C (racemic) [Example 37] | 100 |  | 97 | 100 | 100 |  | 95 |  |  |  | 96 | 
9 | 2.11^[a] | CC1OC(C)(C)c2cccc(NC(=O)c3cccnc3C(F)F)c21 (racemic) [Example 12] | 100 | 86 | 96 |  | 100 |  |  |  |  |  |  | Eff. % (Botrytis cinerea; dose 500 ppm): 100%
10 | 3.92^[a] | CC(C)(C)CC1CCc2cccc(NC(=O)c3cccnc3C(F)F)c21 (stereo not shown) [Example 90] |  |  |  |  |  | 98 |  | 100 | 100 | 80 |  | Eff. % (Alternaria brassicae; dose 100 ppm): 93%; Eff. % (Pyrenophora teres; dose 100 ppm): 86%; Eff. % (Septoria tritici; 100 ppm): 96%
11 | 4.11^[a] | CC(C)C1Cc2c(NC(=O)c3cccnc3C(F)F)cccc2C1(C)C (racemic) [Example 43] | 98 |  | 86 | 100 | 100 |  | 98 |  |  |  | 100 | 
12 | 2.73^[a] | CC(C)C1OC(C)(C)c2cccc(NC(=O)c3cccnc3C(F)F)c21 (racemic) [Example 76] |  |  |  |  |  | 94 |  | 98 | 96 | 98 |  | Eff. % (Alternaria brassicae; dose 100 ppm): 75%; Eff. % (Pyrenophora teres; dose 100 ppm): 92%; Eff. % (Septoria tritici; 100 ppm): 97%
13 |  | CC1CC(C)(C)c2cccc(NC(=O)c3ccccc3C(F)F)c21 (stereo not shown) [2-(difluoromethyl)-N-(1,1,3-trimethyl-2,3-dihydro-1H-inden-4-yl)benzamide, reference compound] |  |  |  |  |  |  |  |  |  |  |  | protection (in words) (Puccinia recondita; [4]): low protection; Efficacy (Puccinia recondita; [5]): 83%; protection (in words) (Pyrenophora teres; [4]): lower protection; Efficacy (Pyrenophora teres; [5]): 0%; protection (in words) (Sphaerotheca fuliginea; [4]): lower protection; Efficacy (Sphaerotheca fuliginea; dose 100 ppm, comparison with prior-art compounds, gherkin plants, grading 12 days after contamination): 0%; protection (in words) (Botrytis cinerea; [4]): no protection at all; Efficacy (Botrytis cinerea; [5]): 0%
14 | 3.64^[a] | CCC1(CC)OC(C(C)C)c2c(NC(=O)c3cccnc3C(F)F)cccc21 (racemic) [Example 56] | 88 | 92 | 93 | 98 | 100 |  |  |  |  |  | 93 | 
